Laboratory results as given in PubChem BioAssay (NCI).
Several values for one entry are separate records, joined by “and”; a condition that tells them apart may be missing. Identical values can stand only once.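 Assay format: 96-well plates, 48-hour exposure. Here, GI50 denotes the concentration required for 50% inhibition of growth. Definition used: TGI = concentration required for complete inhibition of growth.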

Columns and labels:
Test in all cases: inhibition of tumour cell growth, NCI panel, 48 h
COLO 205 colon = test system: COLO 205 colon
HCT-15 colon = test system: HCT-15 colon
IGROV1 ovarian = test system: IGROV1 ovarian
MDA-MB-435 = test system: MDA-MB-435
RPMI-8226 leukemia = test system: RPMI-8226 leukemia
SK-OV-3 ovarian = test system: SK-OV-3 ovarian
SNB-19 CNS = test system: SNB-19 CNS
UO-31 renal = test system: UO-31 renal
DMS 273 small cell lung = test system: DMS 273 small cell lung

Row | SMILES | GI50 (COLO 205 colon) [µM] | TGI (COLO 205 colon) | GI50 (HCT-15 colon) | TGI (HCT-15 colon) | GI50 (IGROV1 ovarian) | TGI (IGROV1 ovarian) | GI50 (MDA-MB-435) | TGI (MDA-MB-435) | GI50 (RPMI-8226 leukemia) | TGI (RPMI-8226 leukemia) | GI50 (SK-OV-3 ovarian) | TGI (SK-OV-3 ovarian) | GI50 (SNB-19 CNS) | TGI (SNB-19 CNS) | GI50 (UO-31 renal) | TGI (UO-31 renal) | TGI (DMS 273 small cell lung) [µM]
1 | COc1ccc([C@@H](O)c2cc(-c3ncnc4cc(N5CCOCC5)ccc34)c(F)cc2Cl)nn1 | 2.85 | 16.5 µM | 3.08 µM | 23.2 µM | 0.469 µM | 4.99 µM | 4.18 µM | 37.4 µM | 3.58 µM | 22.4 µM | 1.27 µM | 10.7 µM | 10.8 µM | > 100 µM | 0.646 µM | 23 µM | –
2 | N=c1ccc2nc3c(cc(N)c4ccccc43)oc-2c1 | 0.237 | 0.892 µM | 0.214 µM | 1.13 µM | 0.18 µM | 0.643 µM | 0.182 µM | 0.338 µM | 0.427 µM | 2.94 µM | 0.477 µM | 1.73 µM | 0.242 µM | 0.795 µM | 0.333 µM | 0.958 µM | –
3 | COC(=O)c1ccc(CN2C(=O)C(Cl)=C(Nc3ccc(OC)c(Cl)c3)C2=O)cc1 | 17 | > 50 µM | 5.2 µM | 42.4 µM | 10.6 µM | > 50 µM | 47.3 µM | > 50 µM | > 50 µM | > 50 µM | 33.9 µM | > 50 µM | 5.93 µM | 22.3 µM | 31.8 µM | > 50 µM | –
4 | CC12CC=CCC1CCC1C2CCC2(C)C(c3ccc(=O)oc3)CCC12O (stereo not drawn) | 0.36 | 1.45 µM | 0.105 µM | 0.458 µM | 0.0737 µM | 1.41 µM | 0.179 µM | 0.727 µM | 0.107 µM | 0.756 µM | 0.276 µM | 0.688 µM | 0.295 µM | 1.19 µM | 0.0988 µM | 0.225 µM | –
5 | COC(=O)[C@]1(C)CCC[C@@]2(C)[C@@H]3C[C@@H]4[C@H]5C[C@@]3(CC[C@@H]21)C[C@@]45C | – | 45.8 µM | – | 29.7 µM | – | 36 µM | – | 38.7 µM | – | 27.7 µM | – | 27.8 µM | – | 26.9 µM | – | 29.4 µM | –
6 | O=C(N/N=C/c1ccc(Cl)cc1)c1[nH]c2ccc(Cl)cc2c1-c1ccccc1 | 0.202 | 0.406 µM | 0.255 µM | – | 0.0523 µM | 12.1 µM | 0.245 µM | 0.72 µM | 0.0193 µM | 0.0556 µM | 0.387 µM | – | 0.504 µM | > 56.1 µM | 0.268 µM | > 65 µM | –
7 | CSc1nsc(S/C=C\C(=O)c2ccc(C)cc2)n1 | 25.5 | > 63.7 µM | 11.9 µM | 25.3 µM | 25.5 µM | > 100 µM | 19.2 µM | 45.6 µM | 43 µM | > 100 µM | 60.7 µM | > 100 µM | 28.1 µM | > 68.2 µM | 15.1 µM | > 62.8 µM | –
8 | CCCCNC(=O)Oc1ccc(/C(=C(/CC)Cc2ccccc2)c2ccc(OCCN3CCCCCC3)cc2)cc1 | 20.6 | 39.7 µM | 16.4 µM | 36.3 µM | 30.5 µM | > 100 µM | 17.2 µM | 34.3 µM | 24 µM | 52.8 µM | > 100 µM | > 100 µM | 39.8 µM | > 100 µM | 18.9 µM | 46.3 µM | –
9 | C/C=C(/C)c1cnc(CC(C)C)c(=O)[nH]1 | – | > 100 µM | – | > 100 µM | – | > 100 µM | – | > 100 µM | – | > 100 µM | – | > 100 µM | – | > 100 µM | – | > 100 µM | –
10 | CCCCN(CC)c1ncnc2ccc(Br)cc12 | 20.4 | 63.7 µM | 22.1 µM | 54.7 µM | 16.7 µM | > 100 µM | 16 µM | 34.4 µM | 3.71 µM | 22.1 µM | 18.8 µM | 49.4 µM | 35.2 µM | > 100 µM | 19.9 µM | 98.7 µM | –
11 | Oc1c(CN2CCCC2)cc(CSCc2ccccc2)c2cccnc12 | 4.82 | 18.7 µM | 0.0612 µM | 1.85 µM | 1.93 µM | 11.3 µM | 1.4 µM | 13.6 µM | 1.42 µM | 6.81 µM | 0.666 µM | 2.82 µM | 1.72 µM | 13.5 µM | 0.103 µM | 1.38 µM | –
12 | CCCCN(CCCC)CCc1c(C)cc(C)c(CCN(CCCC)CCCC)c1O | 1.96 | 4.14 µM | 3.06 µM | 13 µM | 3.69 µM | 35.6 µM | 3.11 µM | 53.2 µM | 2.24 µM | 7.13 µM | 2.68 µM | 8.53 µM | 3.04 µM | > 100 µM | 2.69 µM | 16.8 µM | –
13 | COc1cc(/C=C2\CN(C(=O)CCN3CCC(=NO)CC3)C/C(=C\c3cc(OC)c(OC)c(OC)c3)C2=O)cc(OC)c1OC | 0.419 | 1.27 µM | 0.972 µM | 3.22 µM | 0.275 µM | 0.793 µM | 0.239 µM | 0.637 µM | 0.268 µM | 0.851 µM | 1.87 µM | 4.78 µM | 0.452 µM | 1.58 µM | 1.11 µM | 2.51 µM | –
14 | Cc1cnc(Nc2ccc(OCCN3CCCC3)cc2)nc1Nc1cccc(S(=O)(=O)NC(C)(C)C)c1 | 0.72 | 0.859 µM and 2.55 µM | 0.33 µM and 1.79 µM | 11.5 µM and > 10 µM | 0.0833 µM and 0.558 µM | 1.75 µM and 4.49 µM | 0.121 µM and 1.14 µM | 11.9 µM and > 10 µM | 1.23 µM and 1.09 µM | 6.51 µM and > 6.61 µM | 0.171 µM and 0.631 µM | 2.62 µM and 3.14 µM | 2.66 µM and 3.4 µM | 15.6 µM and > 10 µM | 0.221 µM and 0.656 µM | 1.99 µM and 2.44 µM | –
15 | O=C1C(Cl)=C(c2ccc([N+](=O)[O-])cc2)C(=O)c2c(O)cccc21 | – | 3.66 µM | – | 3.35 µM | – | 4.34 µM | – | 4.8 µM | – | > 100 µM | – | 8.64 µM | – | 5.68 µM | – | 3.84 µM | > 100
16 | CC1(C)C(=O)C=CC2(C)C1CC(O)C1(C)C2CCC2(C)C(c3ccoc3)OC(=O)C3OC321 (stereo not drawn) | – | 50.3 µM | – | 23.6 µM | – | 33.9 µM | – | 72.7 µM | – | 47.9 µM | – | > 100 µM | – | 44.3 µM | – | 25.8 µM | –
